From US12516056B2, “Compounds for inhibition of janus kinase 1” (MANKIND PHARMA LTD., priority 2019, dated 2026)

Key:
Recombinant TYK2 = biological target: T1, Recombinant TYK2 (Homo sapiens, UniProt P29597); experiment: JAK biochemical assay (LANCE Ultra TR-FRET), TYK2; settings: recombinant TYK2, TR-FRET; read-out: Biochemical Assay (μM) TYK2
T1 construct: purchased Carna Biosciences
Procedure, shortened: (§1)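 % inhibition relative to vehicle was derived from TR-FRET signal proportional to ULight-substrate phosphorylation. Reactions used recombinant kinase in HEPES pH 7.5 buffer containing EGTA, MgCl2, DTT and Tween-20.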

[1] = tested on: STAT5 phosphorylation by GMCSF in TF-1 cells; experiment: JAK cellular assay: STAT5 phosphorylation by GMCSF in TF-1 cells (HTRF); format: cell-based; settings: Homo sapiens; TF-1 cells, GMCSF 5 ng/ml, pSTAT5 HTRF; read-out: Cell Based Assay (μM) TF-1/GMCSF/pSTAT5
Procedure, shortened: (§2)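 TF-1 cells starved overnight in low-serum OptiMEM, then 120,000/well in RPMI, preincubated with compound 30 min at 37 °C (0.2% DMSO final). Stimulation 20 min with IL-6 30 ng/ml (pSTAT3) or GMCSF 5 ng/ml (pSTAT5); lysate phospho-STAT by HTRF, unstimulated background subtracted.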

[2] = tested on: STAT3 phosphorylation by IL-6 in TF-1 cells; experiment: JAK cellular assay: STAT3 phosphorylation by IL-6 in TF-1 cells (HTRF); format: cell-based; settings: Homo sapiens, TF-1, TF-1 cells, IL-6 30 ng/ml, pSTAT3 HTRF; read-out: Cell Based Assay (μM) TF-1/IL-6/pSTAT3
Procedure, shortened: as §2

Recombinant JAK3 = biological target: T2, Recombinant JAK3 (Homo sapiens, UniProt P52333); experiment: JAK biochemical assay (LANCE Ultra TR-FRET), JAK3; settings: recombinant JAK3, TR-FRET; read-out: Biochemical Assay (μM) JAK3
T2 construct: purchased Carna Biosciences
T2 sequence (P52333 1-1124): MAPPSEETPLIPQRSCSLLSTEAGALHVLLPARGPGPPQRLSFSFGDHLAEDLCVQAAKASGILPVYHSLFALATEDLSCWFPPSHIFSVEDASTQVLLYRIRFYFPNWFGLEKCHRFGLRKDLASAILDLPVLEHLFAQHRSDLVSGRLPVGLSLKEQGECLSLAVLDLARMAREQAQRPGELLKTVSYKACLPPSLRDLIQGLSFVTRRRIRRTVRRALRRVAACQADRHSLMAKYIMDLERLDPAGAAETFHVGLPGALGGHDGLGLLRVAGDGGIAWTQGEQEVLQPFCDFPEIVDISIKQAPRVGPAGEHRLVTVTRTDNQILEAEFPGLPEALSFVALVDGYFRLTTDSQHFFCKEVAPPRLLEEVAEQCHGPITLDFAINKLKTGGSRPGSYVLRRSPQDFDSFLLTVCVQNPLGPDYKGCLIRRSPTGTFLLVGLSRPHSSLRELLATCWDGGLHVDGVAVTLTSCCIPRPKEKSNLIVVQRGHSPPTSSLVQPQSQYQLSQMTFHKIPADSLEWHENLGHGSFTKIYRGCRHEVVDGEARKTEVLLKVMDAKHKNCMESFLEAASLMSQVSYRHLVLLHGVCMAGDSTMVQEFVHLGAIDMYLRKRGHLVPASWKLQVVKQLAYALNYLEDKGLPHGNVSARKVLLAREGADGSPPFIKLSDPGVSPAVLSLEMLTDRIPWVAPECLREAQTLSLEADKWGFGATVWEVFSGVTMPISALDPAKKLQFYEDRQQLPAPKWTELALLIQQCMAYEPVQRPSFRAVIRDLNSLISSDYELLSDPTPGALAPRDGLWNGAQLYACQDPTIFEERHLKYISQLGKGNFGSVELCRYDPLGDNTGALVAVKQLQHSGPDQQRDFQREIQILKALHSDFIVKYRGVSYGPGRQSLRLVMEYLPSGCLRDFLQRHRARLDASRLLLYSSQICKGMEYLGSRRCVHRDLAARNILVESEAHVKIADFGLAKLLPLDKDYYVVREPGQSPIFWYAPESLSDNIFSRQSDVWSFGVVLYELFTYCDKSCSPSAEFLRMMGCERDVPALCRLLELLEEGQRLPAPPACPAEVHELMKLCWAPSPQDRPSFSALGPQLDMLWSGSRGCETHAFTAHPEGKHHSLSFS
Procedure, shortened: as §1

Recombinant JAK2 = biological target: T3, Recombinant JAK2 (Homo sapiens, UniProt O60674); experiment: JAK biochemical assay (LANCE Ultra TR-FRET), JAK2; settings: recombinant JAK2, TR-FRET; read-out: Biochemical Assay (μM) JAK2
T3 construct: purchased Carna Biosciences
T3 sequence (O60674 whole entry): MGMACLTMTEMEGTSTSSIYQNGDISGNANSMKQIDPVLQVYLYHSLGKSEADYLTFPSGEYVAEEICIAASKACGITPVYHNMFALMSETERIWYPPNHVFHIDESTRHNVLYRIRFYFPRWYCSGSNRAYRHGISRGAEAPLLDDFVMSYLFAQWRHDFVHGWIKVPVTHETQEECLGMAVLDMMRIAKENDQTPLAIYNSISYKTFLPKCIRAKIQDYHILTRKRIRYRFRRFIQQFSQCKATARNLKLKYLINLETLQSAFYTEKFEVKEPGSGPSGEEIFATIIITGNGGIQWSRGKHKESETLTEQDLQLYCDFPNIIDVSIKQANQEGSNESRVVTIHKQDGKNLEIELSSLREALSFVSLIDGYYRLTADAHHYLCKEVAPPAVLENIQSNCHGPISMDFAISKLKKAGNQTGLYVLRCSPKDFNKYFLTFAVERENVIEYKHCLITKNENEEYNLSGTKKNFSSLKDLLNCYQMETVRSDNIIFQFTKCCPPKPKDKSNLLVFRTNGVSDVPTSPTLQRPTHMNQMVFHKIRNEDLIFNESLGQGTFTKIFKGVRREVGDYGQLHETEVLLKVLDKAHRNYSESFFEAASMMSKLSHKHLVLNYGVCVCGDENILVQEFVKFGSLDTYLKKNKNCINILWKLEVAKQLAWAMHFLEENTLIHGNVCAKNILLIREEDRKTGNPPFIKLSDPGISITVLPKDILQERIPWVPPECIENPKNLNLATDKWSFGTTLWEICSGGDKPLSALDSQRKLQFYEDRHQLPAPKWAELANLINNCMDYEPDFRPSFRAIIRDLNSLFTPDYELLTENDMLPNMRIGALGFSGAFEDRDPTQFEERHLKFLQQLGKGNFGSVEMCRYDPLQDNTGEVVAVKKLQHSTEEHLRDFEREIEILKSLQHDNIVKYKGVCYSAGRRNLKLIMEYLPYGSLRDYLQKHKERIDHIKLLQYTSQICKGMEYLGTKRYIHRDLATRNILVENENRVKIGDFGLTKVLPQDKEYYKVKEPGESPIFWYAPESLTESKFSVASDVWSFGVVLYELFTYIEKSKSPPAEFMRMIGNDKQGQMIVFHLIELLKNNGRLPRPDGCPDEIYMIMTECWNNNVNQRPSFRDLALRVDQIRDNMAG
Procedure, shortened: as §1

[3] = tested on: STAT5 phosphorylation by IL-2 in HT-2 cells; experiment: STAT5 phosphorylation by IL-2 in HT-2 cells (HTRF); format: cell-based; settings: HT2, HT-2 cells, IL-2 50 U/ml, pSTAT5 HTRF; read-out: Cell Based Assay (μM) HT-2/IL-2/pSTAT5
Protocol: HT-2 cells were starved […] in RPMI phenol red with 10% fetal bovine serum for 4 hours in CO2 incubator maintained at 37° c. Compounds were diluted in DMSO and added to 96 well plate containing a final density of 1,20,000 cells per well. Cells and compounds are incubated for 30 minutes in CO2 incubator maintained at 37° C. and final DMSO concentration in cell based assay was 0.2%. Human recombinant cytokine, IL-2 (50 U/ml) was added to the plate containing cells and compound and incubated for 20 minutes with gentle tapping/shaking at every 5 minutes once. Compound mediated effects on STAT5 phosphorylation was measured in the lysates prepared by using CISBIO pSTAT5 detection kit by HTRF method. Background signal obtained from cells which were not activated with cytokines, was subtracted from vehicle controls and compound treated wells.

Recombinant JAK1 = biological target: T4, Recombinant JAK1 (Homo sapiens, UniProt P23458); experiment: JAK biochemical assay (LANCE Ultra TR-FRET), JAK1; settings: recombinant JAK1, TR-FRET; read-out: Biochemical Assay (μM) JAK1
T4 construct: purchased Carna Biosciences
T4 sequence (P23458 whole entry): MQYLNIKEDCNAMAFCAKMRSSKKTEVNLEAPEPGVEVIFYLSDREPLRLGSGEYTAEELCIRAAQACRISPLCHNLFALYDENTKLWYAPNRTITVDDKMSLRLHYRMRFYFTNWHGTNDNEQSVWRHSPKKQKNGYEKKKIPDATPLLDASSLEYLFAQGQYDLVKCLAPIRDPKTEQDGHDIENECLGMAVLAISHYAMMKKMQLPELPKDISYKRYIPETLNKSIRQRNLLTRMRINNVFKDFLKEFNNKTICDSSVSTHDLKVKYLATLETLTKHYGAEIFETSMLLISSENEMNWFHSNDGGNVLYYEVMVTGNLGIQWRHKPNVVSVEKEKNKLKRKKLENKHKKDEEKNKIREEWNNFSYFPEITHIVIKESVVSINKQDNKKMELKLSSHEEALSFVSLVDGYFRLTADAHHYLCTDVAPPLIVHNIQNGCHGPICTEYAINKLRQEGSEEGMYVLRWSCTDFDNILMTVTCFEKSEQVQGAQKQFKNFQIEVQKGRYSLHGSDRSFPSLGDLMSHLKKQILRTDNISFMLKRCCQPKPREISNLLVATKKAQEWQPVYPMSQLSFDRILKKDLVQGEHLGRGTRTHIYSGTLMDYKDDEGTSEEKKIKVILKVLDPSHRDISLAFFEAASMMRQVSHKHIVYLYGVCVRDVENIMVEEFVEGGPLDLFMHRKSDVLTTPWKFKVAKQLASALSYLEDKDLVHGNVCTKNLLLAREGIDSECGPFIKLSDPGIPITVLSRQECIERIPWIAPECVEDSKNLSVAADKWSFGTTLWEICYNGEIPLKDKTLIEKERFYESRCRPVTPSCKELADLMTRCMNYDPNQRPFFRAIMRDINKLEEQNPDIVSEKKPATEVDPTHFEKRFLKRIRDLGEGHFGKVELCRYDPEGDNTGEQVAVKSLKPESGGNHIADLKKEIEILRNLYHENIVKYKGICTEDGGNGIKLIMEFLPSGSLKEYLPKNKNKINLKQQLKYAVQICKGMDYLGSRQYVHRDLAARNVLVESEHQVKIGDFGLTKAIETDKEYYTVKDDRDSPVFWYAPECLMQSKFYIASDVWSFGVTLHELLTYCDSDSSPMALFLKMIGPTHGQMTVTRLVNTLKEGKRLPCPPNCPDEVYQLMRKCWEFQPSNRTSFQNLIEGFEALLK
Procedure, shortened: as §1

T1 sequence (P29597 whole entry): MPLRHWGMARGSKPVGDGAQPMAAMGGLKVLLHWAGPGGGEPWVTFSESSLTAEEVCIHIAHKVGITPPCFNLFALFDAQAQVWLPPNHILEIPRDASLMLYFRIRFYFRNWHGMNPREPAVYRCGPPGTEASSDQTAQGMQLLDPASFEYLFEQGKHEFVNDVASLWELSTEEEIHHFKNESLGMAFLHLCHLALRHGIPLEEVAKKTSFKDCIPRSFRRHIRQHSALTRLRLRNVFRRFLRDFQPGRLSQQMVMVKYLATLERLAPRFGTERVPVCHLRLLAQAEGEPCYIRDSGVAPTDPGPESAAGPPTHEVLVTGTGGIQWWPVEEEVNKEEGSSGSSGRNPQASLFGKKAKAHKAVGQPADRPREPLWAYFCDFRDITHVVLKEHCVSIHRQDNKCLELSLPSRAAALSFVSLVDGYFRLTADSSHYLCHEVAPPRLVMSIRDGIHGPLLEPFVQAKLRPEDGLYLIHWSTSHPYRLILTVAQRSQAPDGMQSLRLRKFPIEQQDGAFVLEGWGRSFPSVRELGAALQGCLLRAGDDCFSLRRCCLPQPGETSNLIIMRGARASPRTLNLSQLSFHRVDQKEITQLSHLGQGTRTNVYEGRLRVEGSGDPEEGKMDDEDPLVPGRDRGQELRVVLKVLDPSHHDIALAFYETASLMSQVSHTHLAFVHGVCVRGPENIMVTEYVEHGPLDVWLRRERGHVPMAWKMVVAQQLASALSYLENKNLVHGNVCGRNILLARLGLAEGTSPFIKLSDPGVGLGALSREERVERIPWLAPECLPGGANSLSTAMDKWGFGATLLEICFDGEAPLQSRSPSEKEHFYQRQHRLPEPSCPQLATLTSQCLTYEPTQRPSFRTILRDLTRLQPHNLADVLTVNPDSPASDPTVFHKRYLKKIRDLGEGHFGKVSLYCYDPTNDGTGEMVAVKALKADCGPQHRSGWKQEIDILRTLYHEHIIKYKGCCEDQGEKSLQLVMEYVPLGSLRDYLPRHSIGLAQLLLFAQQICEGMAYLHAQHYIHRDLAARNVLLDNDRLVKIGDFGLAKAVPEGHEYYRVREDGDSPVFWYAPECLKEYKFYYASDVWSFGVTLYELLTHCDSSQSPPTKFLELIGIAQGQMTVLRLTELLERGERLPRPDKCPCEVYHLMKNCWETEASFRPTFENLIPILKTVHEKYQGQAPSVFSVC

| IC50 (Recombinant TYK2) [µM] | IC50 [1] [µM] | IC50 [2] [µM] | IC50 (Recombinant JAK3) [µM] | IC50 (Recombinant JAK2) [µM] | IC50 [3] [µM] | IC50 (Recombinant JAK1) [µM] | Structure (SMILES) |
| --- | --- | --- | --- | --- | --- | --- | --- |
| > 1 | > 1 | > 0.8 | < 0.1 | > 0.1 | 1.5 | < 0.1 | FC(F)(F)[C@@H](c1ccc(-n2cc(-c3ccnc4[nH]cnc34)cn2)nc1)C1COC1 (single isomer, unassigned) [Example 1184] |
| > 1 | > 1 | 2 | > 0.1 | > 0.1 | > 3 | < 0.1 | FC(F)(F)[C@H](c1ccc(-n2cc(-c3ccnc4[nH]cnc34)cn2)nc1)C1COC1 (single isomer, unassigned) [Example 1185] |
| > 1 | > 10 | > 10 | > 1 | > 1 | > 10 | – | O=C(NCC(F)(F)F)N1CCN(c2ccnc3[nH]c(=O)[nH]c23)CC1 [Example 1011, N-(2,2,2-trifluoroethyl)-4-(2,3-dihydro-2-oxo-1H-imidazo[4,5-b]pyridin-7-yl)piperazine-1-carboxamide] |
| > 1 | > 10 | > 10 | > 1 | – | > 10 | – | O=C(Nc1ccncc1)N1CCN(c2ccnc3[nH]c(=O)[nH]c23)CC1 [Example 1014, 4-(2,3-dihydro-2-oxo-1H-imidazo[4,5-b]pyridin-7-yl)-N-(pyridin-4-yl)piperazine-1-carboxamide] |
| 0.096 | > 10 | > 10 | 0.146 | 0.044 | > 10 | 0.028 | N#CCNC(=O)n1cc(-c2ccnc3[nH]c(=O)[nH]c23)cn1 [Example 1027, N-(cyanomethyl)-4-(2,3-dihydro-2-oxo-1H-imidazo[4,5-b]pyridin-7-yl)-1H-pyrazole-1-carboxamide] |
| > 1 | > 10 | > 1 | 0.12 | 0.3 | > 1 | 0.053 | CS(=O)(=O)NCc1ccc(-n2cc(-c3ccnc4[nH]cnc34)cn2)nc1 [Example 1090, N-((6-(4-(3H-imidazo[4,5-b]pyridin-7-yl)-1H-pyrazol-1-yl)pyridin-3-yl)methyl)methanesulfonamide] |
| > 1 | > 1 | > 1 | > 0.5 | > 0.5 | > 1 | > 0.1 | CCC(c1ccc(-n2cc(-c3ccnc4[nH]cnc34)cn2)nc1)C(F)(F)F (centres unmarked) [Example 1122, 7-(1-(5-(1,1,1-trifluorobutan-2-yl)pyridin-2-yl)-1H-pyrazol-4-yl)-3H-imidazo[4,5-b]pyridine] |
| > 1 | > 1 | 0.34 | 0.007 | 0.036 | < 1 | 0.003 | OC(c1ccc(-n2cc(-c3ccnc4[nH]cnc34)cn2)nc1)(C1CC1)C(F)(F)F (centres unmarked) [Example 1126, 1-(6-(4-(3H-imidazo[4,5-b]pyridin-7-yl)-1H-pyrazol-1-yl)pyridin-3-yl)-1-cyclopropyl-2,2,2-trifluoroethanol] |
| > 1 | > 1 | > 0.5 | < 0.1 | – | > 0.5 | < 0.1 | CNS(=O)(=O)CCC(c1ccc(-n2cc(-c3ccnc4[nH]cnc34)cn2)nc1)C(F)(F)F (centres unmarked) [Example 1142, 3-(6-(4-(3H-imidazo[4,5-b]pyridin-7-yl)-1H-pyrazol-1-yl)pyridin-3-yl)-4,4,4-trifluoro-N-methylbutane-1-sulfonamide] |
| > 0.1 | 1 | > 0.1 | – | > 0.03 | > 0.1 | 0.003 | CC(C)NC(=O)CCC(O)(c1ccc(-n2cc(-c3ccnc4[nH]cnc34)cn2)nc1)C(F)(F)F (centres unmarked) [Example 1238, 4-(6-(4-(3H-imidazo[4,5-b]pyridin-7-yl)-1H-pyrazol-1-yl)pyridin-3-yl)-5,5,5-trifluoro-4-hydroxy-N-isopropylpentanamide] |
